Each structure is given as a SMILES string. Read-outs that look alike come from different tables or passages of the source.

In one test the target is GSK-3α/β. Nature of the test: GSK-3α/β kinase assay (GS-1 peptide, 15 μM ATP). It counts as biochemical, porcine.
The next test has as its target CDK5/p25 (Homo sapiens, UniProt Q00535). Nature of the test: CDK5/p25 kinase assay (histone H1, 15 μM ATP). It counts as biochemical, mammalian.
The target of another test is CDK1/cyclin B. Description: CDK1/cyclin B kinase assay (histone H1, 15 μM ATP). It counts as biochemical, starfish (Marthasterias glacialis). The note with it: Table 5; read-out: IC50 CDK1/cyclin B.
[1] abbreviates: Table 7, GSK-3, read-out: IC50exp.
Where [2] appears, read: Table 5, read-out: IC50 CDK5/p25.
Where [3] appears, read: Table 5, read-out: IC50 GSK-3α/β.
The mark [4] stands for this setting: Table 6, read-out: GSK-3 (IC50 μM).
Where [5] appears, read: Table 6, read-out: CDK-5 (IC50 μM).

Chain of CDK5/p25 (Q00535 whole entry, species assumed): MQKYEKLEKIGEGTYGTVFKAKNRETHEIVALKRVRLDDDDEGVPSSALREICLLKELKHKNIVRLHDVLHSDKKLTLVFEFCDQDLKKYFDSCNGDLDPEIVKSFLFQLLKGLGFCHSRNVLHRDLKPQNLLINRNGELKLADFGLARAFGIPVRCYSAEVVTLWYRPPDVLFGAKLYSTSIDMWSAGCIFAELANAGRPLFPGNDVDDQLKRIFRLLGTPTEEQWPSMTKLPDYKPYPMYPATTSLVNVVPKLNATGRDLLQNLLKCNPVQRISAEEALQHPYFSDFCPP
Chain of CDK5/p25 (Q15078 99-307 partner limits assumed, species assumed): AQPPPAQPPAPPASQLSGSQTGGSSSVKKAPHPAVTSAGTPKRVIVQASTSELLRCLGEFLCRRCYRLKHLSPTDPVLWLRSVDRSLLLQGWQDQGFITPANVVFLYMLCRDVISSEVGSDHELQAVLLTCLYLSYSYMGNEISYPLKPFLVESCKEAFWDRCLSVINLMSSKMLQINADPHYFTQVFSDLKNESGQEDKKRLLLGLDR

For the compound `O=C1Nc2ccc(F)cc2C1=C1Nc2ccccc2C1=O` [5-Fluoroindirubin, reference compound], at GSK-3α/β (setting [1]), the IC50 was found to be 0.078 µM.

Turning to `O=C1Nc2ccc([N+](=O)[O-])cc2C1=C1Nc2ccccc2C1=O` [5-Nitroindirubin, reference compound], the IC50 on GSK-3α/β (setting [1]) came out at 0.042 µM.

Take `O=C1Nc2cc(F)ccc2/C1=C1/Nc2ccccc2C1=O` [5b, 6-Fluoroindirubin]: the IC50 on CDK5/p25 (setting [2]) amounted to 1 µM.

Take `O=C1Nc2cc(Cl)c(Cl)cc2/C1=C1/Nc2ccccc2C1=O` [5e, 5,6-Dichloroindirubin]: the IC50 was 60 µM on CDK5/p25 (setting [2]), 0.03 µM at GSK-3α/β (setting [3]), 0.03 µM at GSK-3α/β (setting [1]) and 45 µM at CDK1/cyclin B.

`Cc1cc2c(cc1Br)NC(=O)C2=C1Nc2ccccc2C1=O` [5f, 6-Bromo-5-methylindirubin]: the IC50 at CDK5/p25 (setting [2]) came to 60 µM; at GSK-3α/β (setting [3]), 0.025 µM; at GSK-3α/β (setting [1]), 0.025 µM; on CDK1/cyclin B it was 30 µM.

Consider `O=C1Nc2cc(Br)c([N+](=O)[O-])cc2C1=C1Nc2ccccc2C1=O` [5g, 6-Bromo-5-nitroindirubin], for which the IC50 at CDK5/p25 (setting [2]) was more than 100 µM; at GSK-3α/β (setting [3]), 0.1 µM; on GSK-3α/β (setting [1]), 0.1 µM; at CDK1/cyclin B, more than 100 µM.

Turning to `C=Cc1ccc2c(c1)NC(=O)/C2=C1\Nc2ccccc2C1=O` [5i, 6-Vinylindirubin], the IC50 came out at 2.4 µM on CDK5/p25 (setting [2]), 0.24 µM on GSK-3α/β (setting [3]) and 4.2 µM on CDK1/cyclin B.

As to `O=C1Nc2cc(F)ccc2C1=C1Nc2ccccc2C1=NO` [7b, 6-Fluoroindirubin-3′-oxime], the IC50 on CDK5/p25 (setting [2]) came to 0.15 µM; at GSK-3α/β (setting [3]) it was 0.13 µM; at GSK-3α/β (setting [1]), 0.13 µM; on CDK1/cyclin B, 0.32 µM.

As for `Cc1cc2c(cc1Br)NC(=O)C2=C1Nc2ccccc2C1=NO` [7f, 6-Bromo-5-methylindirubin-3′-oxime], the IC50 on CDK5/p25 (setting [2]) is 0.13 µM.

For the compound `O=C1Nc2cc(Br)c([N+](=O)[O-])cc2C1=C1Nc2ccccc2C1=NO` [7g, 6-Bromo-5-nitroindirubin-3′-oxime], the IC50 on CDK5/p25 (setting [2]) is 0.15 µM.

In the case of `C=Cc1ccc2c(c1)NC(=O)C2=C1Nc2ccccc2C1=NO` [7i, 6-Vinylindirubin-3′-oxime], the IC50 on CDK5/p25 (setting [2]) turned out to be 0.42 µM; on GSK-3α/β (setting [3]), 0.06 µM.

Take `CC(=O)O/N=C1/C(=C2/C(=O)Nc3cc(I)ccc32)Nc2ccccc21` [8c, 6-Iodoindirubin-3′-acetoxime]: the IC50 on CDK5/p25 (setting [2]) was determined as 1.3 µM; at GSK-3α/β (setting [3]), 0.013 µM; at CDK1/cyclin B it was 2.2 µM.

For the compound `CC(=O)O/N=C1/C(=C2/C(=O)Nc3cc(Cl)ccc32)Nc2ccccc21` [8d, 6-Chloroindirubin-3′-acetoxime], the IC50 on CDK5/p25 (setting [2]) stood at 0.2 µM; on GSK-3α/β (setting [3]), 0.017 µM; on GSK-3α/β (setting [1]), 0.017 µM; on CDK1/cyclin B, 30 µM.

With `CC(=O)ON=C1C(=C2C(=O)Nc3cc(Cl)c(Cl)cc32)Nc2ccccc21` [8e, 5,6Dichloroindirubin-3′-acetoxime], the IC50 stood at 0.1 µM at CDK5/p25 (setting [2]), 0.004 µM on GSK-3α/β (setting [3]), 0.004 µM at GSK-3α/β (setting [1]) and 30 µM on CDK1/cyclin B.

For `CON=C1C(=C2C(=O)Nc3ccccc32)Nc2ccccc21` [9b, Indirubin-3′-methoxime], the IC50 on CDK5/p25 (setting [2]) is 0.4 µM.

`Nc1ccc2c(c1)C(=C1Nc3ccccc3C1=O)C(=O)N2` [compound 23, 5-Aminoindirubin]: the IC50 on CDK5/p25 was 2.6 µM; on GSK-3α/β (setting [4]), 1.5 µM.

Consider `Nc1ccc2c(c1)/C(=C1/Nc3ccccc3C1=NO)C(=O)N2` [compound 24, 5-Amino-3′-oxime indirubin], for which the IC50 at CDK5/p25 (setting [5]) worked out at 0.47 µM; on GSK-3α/β (setting [4]) it was 0.75 µM.

Take `Nc1cc2c(cc1Br)NC(=O)C2=C1Nc2ccccc2C1=O` [compound 27, 6-Bromo-5-aminoindirubin]: the results for the IC50 on CDK5/p25 (setting [5]) and at GSK-3α/β (setting [4]) were 0.6 µM and 0.054 µM, respectively.

As to `Nc1cc2c(cc1Br)NC(=O)/C2=C1\Nc2ccccc2C1=NO` [compound 28, 6-Bromo-5-amino-3′-oxime indirubin], the IC50 worked out at 0.57 µM at CDK5/p25 (setting [5]) and 0.056 µM on GSK-3α/β (setting [4]).

The values above are taken from patent US20070276025A1, “Indirubin-Type Compounds, Compositions, and Methods for Their Use” (priority 2003, published 2007).
